# Laboratory results published in US20180084782A1, “METHOD OF CONTROL OF STINKBUGS” (Syngenta Participations AG, priority 2015, published 2018).
# Where two headings read alike, the source gives them in different places.
# Tested on: Euschistus heros (neotropical brown stink bug)
# Assay: Insecticidal activity against Euschistus heros: contact/feeding activity on sprayed soybean plants
# Assay type: in vivo
# Conditions: 120 h
# Experimental: Insecticidal activity against Euschistus heros (neotropical brown stink bug): contact/feeding activity of compounds 1 and 3 according to the invention and 2 and 4 as comparison:
# Two week old soybean plants were sprayed in a turn table spray chamber with the diluted spray solutions. After drying, two soybean seeds were added and plants were infested with ten N-2 nymphs of the neotropical brown stink bug Euschistus heros in plastic test boxes. Boxes were incubated in a climate chamber at 25° C. and 60% relative humidity. Evaluation is done 5 days after infestation on mortality and growth effect.
# [1] = 0.2 ppm spray, N-2 nymphs on soybean plants, evaluation 5 days after infestation, read-out: Mortality (%)
# [2] = 0.8 ppm spray, N-2 nymphs on soybean plants, evaluation 5 days after infestation, read-out: Mortality (%)
# [3] = 3 ppm spray, N-2 nymphs on soybean plants, evaluation 5 days after infestation, read-out: Mortality (%)
SMILES,mortality at 0.0125 ppm,mortality at 0.05 ppm,mortality at 0.2 ppm,mortality at 0.8 ppm,mortality at 3 ppm,"mortality at 0.0125 ppm (0.0125 ppm spray, N-2 nymphs on soybean plants, evaluation 5 days after infestation, read-out: Mortality (%))","mortality at 0.05 ppm (0.05 ppm spray, N-2 nymphs on soybean plants, evaluation 5 days after infestation, read-out: Mortality (%))",mortality at 0.2 ppm [1],mortality at 0.8 ppm [2],mortality at 3 ppm [3]
Cn1nc(C(F)(F)C(F)(F)F)c(C(F)(F)F)c1-n1cc(-c2ccc(Cl)c(C(=O)NC3CC3)c2)cn1 [Compound 1],35%,50%,95%,100%,100%,–,–,–,–,–
"Cn1nc(C(F)(F)C(F)(F)F)c(C(F)(F)F)c1-n1cc(-c2ccc(Cl)c(C(=O)NC3CC3)c2)nn1 [Compound 2, reference compound]",–,–,–,–,–,0%,10%,20%,35%,100%
Cn1nc(C(F)(F)C(F)(F)F)c(C(F)(F)F)c1-n1cc(-c2ccc(Cl)c(C(=O)NC3(C#N)CC3)c2)cn1 [Compound 3],15%,35%,95%,95%,100%,–,–,–,–,–
"Cn1nc(C(F)(F)C(F)(F)F)c(C(F)(F)F)c1-n1cc(-c2ccc(Cl)c(C(=O)NC3(C#N)CC3)c2)nn1 [Compound 4, reference compound]",–,–,–,–,–,–,–,0%,20%,95%
